Measured values published in patent US6660718B1, “3-modified leucomycin derivatives” (Meiji Seika Kaisha, Ltd., priority 1999, dated 2003).
Values after ≈ are worked out from the molar mass of the structure shown.

How the values were obtained:
[1] = test system: Staphylococcus aureus 209P JC-1; test: Antibacterial activity test (agar dilution MIC); type: cell-based; conditions: agar plates, 37° C., about 20 hours
Experimental: (§1) In vitro antibacterial activities of the compounds of Examples 3, 5, 20, 23, 25 and 48 were determined as follows by referring to the standard method of the Japanese Society of Chemotherapy (Chemotherapy, 29, pp.76-79, 1981). For comparison, antibacterial activities of rokitamycin (RKM), leucomycin-A7 (LM-A7) and the compound described in U.S. Pat. No. 5,407,918, Example 7 were determined in the same manner.
(§2) For a solution of each test drug dissolved in methanol at 5000 μg/ml, a series of 2-fold dilutions were prepared. 200 μl of each solution of the test drug was added in a petri dish, added with 10 ml of agar medium for susceptibility measurement supplemented with 5% of sterile horse defibrinated blood, 15 μg/ml of β-nicotinamide adenine dinucleotide and 5 μg/ml of Hemin, and then mixed to prepare agar plates containing the test drug. A given volume of a culture broth for susceptibility measurement, which was prepared to contain a given cell numbers of bacteria to be tested, was inoculated to the agar plates containing the test drug by using a micro planter (Sakuma Seisakusho). After the inoculation, cultivation was carried out at 37° C. for about 20 hours. After the culture, presence or absence of the growth of the test bacteria on the plates was observed by visual inspection, and the minimum concentration at which no growth was observed was determined as minimum inhibitory concentration (MIC) of each test drug for each of the test bacteria The results are shown in Tables 1-1, 1-2 and 1-3.

[2] = test system: Streptococcus pneumoniae PRC-53 (mefE efflux); test: Antibacterial activity test (agar dilution MIC); type: cell-based; conditions: for Minimum inhibitory concentration (MIC): Streptococcus pneumoniae PRC-53 (mefE efflux), agar plates, 37° C., about 20 hours
Experimental: as §1, §2

[3] = test system: Streptococcus pneumoniae IP692; test: Antibacterial activity test (agar dilution MIC); type: cell-based; conditions: agar plates, 37° C., about 20 hours
Experimental: as §1, §2

[4] = test system: Streptococcus pneumoniae TH-662 (ermAM methylase); test: Antibacterial activity test (agar dilution MIC); type: cell-based; conditions: agar plates, 37° C., about 20 hours
Experimental: as §1, §2

[5] = test system: Haemophilus influenzae 9334; test: Antibacterial activity test (agar dilution MIC); type: cell-based; conditions: agar plates, 37° C., about 20 hours
Experimental: as §1, §2

[6] = test system: Moraxella catarrhalis W-0500; test: Antibacterial activity test (agar dilution MIC); type: cell-based; conditions: 37° C., about 20 hours; for Minimum inhibitory concentration (MIC): agar plates
Experimental: as §1, §2

[7] = test system: Streptococcus pneumoniae PRC-91 (ermAM methylase); test: Antibacterial activity test (agar dilution MIC); type: cell-based; conditions: agar plates, 37° C., about 20 hours
Experimental: as §1, §2

[8] = test system: resistant strains of Streptococcus pneumoniae; test: Antibacterial activity test, resistant strains, comparison; type: cell-based; conditions: comparison of MIC values of Table 1-3; reversed versus natural configuration at 3-position
Experimental: as §1
as §2, with “A given volume of a culture broth for susceptibility measurement, which was prepared to contain a given cell numbers of bacteria to be tested, was inoculated to the agar plates containing the test drug by using a micro planter (Sakuma Seisakusho). After the inoculation, cultivation was carried out at 37° C. for about 20 hours.” left out

[9] = test system: Staphylococcus aureus MS15027 (ermC methylase); test: Antibacterial activity test (agar dilution MIC); type: cell-based; conditions: for Minimum inhibitory concentration (MIC): Staphylococcus aureus MS15027 (ermC methylase), agar plates, 37° C., about 20 hours
Experimental: as §1, §2

[10] = test system: Streptococcus pneumoniae DP1 TypeI; test: Antibacterial activity test (agar dilution MIC); type: cell-based; conditions: agar plates, 37° C., about 20 hours
Experimental: as §1, §2

[11] = test system: Micrococcus luteus ATCC9341; test: Antibacterial activity test (agar dilution MIC); type: cell-based; conditions: agar plates, 37° C., about 20 hours
Experimental: as §1, §2

[12] = test system: Streptococcus pyogenes Cook; test: Antibacterial activity test (agar dilution MIC); type: cell-based; conditions: agar plates, 37° C., about 20 hours
Experimental: as §1, §2

Gram-positive bacteria = test: Antibacterial activity test, overall comparison; type: cell-based; conditions: for enhancement of the antibacterial activity compared to RKM and LM-A7: comparison of MIC values of Tables 1-1 and 1-2
Experimental: as §1, §2

[13] = type: in vitro ADME; conditions: 4 h
Experimental: Stability of the compound of Example 3 in plasma was studied as follows. Stability of RKM in plasma was also studied in the same manner for comparison. Blood was collected from rat ventral aorta and centrifuged (3000 rpm, 15 minutes) to separate plasma. 10 μl of a solution of a test drug dissolved in methanol at a concentration of 1600 μg/ml was added to 190 μl of the rat plasma and reacted at 37° C. At the start of the reaction and after 1, 2 and 4 hours, a part of the reaction mixture was collected and added with a given volume of an acetonitrile solution to prepare a bioassay sample for measurement of test medicament concentration. […] After the incubation, the diameter of the ring by growth inhibition of Micrococcus luteus ATCC9341 observed around the paper disc was measured by using a digital caliper. […] Based on a calibration curve obtained from concentrations of the standard solutions and diameters of growth inhibition rings, concentrations of the test drug in the samples at several time points were calculated, and then, by using the calculated remaining concentrations of the test drug in the samples at the time points, ratios of activity (%) based on the concentration at the start of the reaction, which was taken as 100%, were calculated. […]

[14] = read-out: Minimum inhibitory concentration (MIC)

| Structure (SMILES) | Minimum inhibitory concentration (MIC) [1] | Minimum inhibitory concentration (MIC) [2] | Minimum inhibitory concentration (MIC) [3] | Minimum inhibitory concentration (MIC) [4] | Minimum inhibitory concentration (MIC) [5] | Minimum inhibitory concentration (MIC) [6] | Minimum inhibitory concentration (MIC) [7] | Minimum inhibitory concentration (MIC) [9] | Minimum inhibitory concentration (MIC) [10] | Minimum inhibitory concentration (MIC) [11] | Minimum inhibitory concentration (MIC) [12] | other results |
| --- | --- | --- | --- | --- | --- | --- | --- | --- | --- | --- | --- | --- |
| CCC(=O)OC1C(C)OC(OC2C(C)OC(OC3C(CC=O)CC(C)C(O)C=CC=CCC(C)OC(=O)CC(OC(=O)c4ccccc4)C3OC)C(O)C2N(C)C)CC1(C)O (centres unmarked) [Example 25, 3-O-Benzoylleucomycin A7] | 0.39 µg/mL (≈ 0.452 µM) | 0.39 µg/mL (≈ 0.452 µM) | 0.39 µg/mL (≈ 0.452 µM) | >100 µg/mL | 6.25 µg/mL (≈ 7.25 µM) | 1.56 µg/mL (≈ 1.81 µM) | >100 µg/mL |  |  |  |  |  |
| CCC(=O)OC1C(C)OC(OC2C(C)OC(OC3C(CC=O)CC(C)C(O)C=CC=CCC(C)OC(=O)CC(OC(=O)c4ccccc4)C3OC)C(O)C2N(C)C)CC1(C)O (stereo not drawn) [Example 48, 3-Epi-3-O-benzoylleucomycin A7] | 0.39 µg/mL (≈ 0.452 µM) | 0.20 µg/mL (≈ 0.232 µM) | 0.20 µg/mL (≈ 0.232 µM) | 25 µg/mL (≈ 29 µM) | 6.25 µg/mL (≈ 7.25 µM) | 0.78 µg/mL (≈ 0.905 µM) | 25 µg/mL (≈ 29 µM) | 0.78 µg/mL (≈ 0.905 µM) |  |  |  | antibacterial activity against the resistant strains of Streptococcus pneumoniae, compared with Example 25 [8]: improvement in antibacterial activity |
| CCC(=O)O[C@H]1[C@H](C)O[C@@H](O[C@H]2[C@H](N(C)C)[C@@H](O)[C@H](O[C@H]3[C@@H](CC=O)C[C@@H](C)[C@@H](O)/C=C/C=C/C[C@@H](C)OC(=O)C[C@@H](O)[C@@H]3OC)O[C@@H]2C)C[C@@]1(C)O [LM-A7, leucomycin-A7, reference compound] | 0.39 µg/mL (≈ 0.515 µM) | 0.20 µg/mL (≈ 0.264 µM) | 0.39 µg/mL (≈ 0.515 µM) | >100 µg/mL | 1.56 µg/mL (≈ 2.06 µM) | 0.78 µg/mL (≈ 1.03 µM) | >100 µg/mL | 0.39 µg/mL (≈ 0.515 µM) | 0.20 µg/mL (≈ 0.264 µM) | 0.10 µg/mL (≈ 0.132 µM) | 0.10 µg/mL (≈ 0.132 µM) |  |
| CCC(=O)OC1C(C)OC(OC2C(C)OC(OC3C(CC=O)CC(C)C(O)C=CC=CCC(C)OC(=O)CC(OC)C3OC)C(O)C2N(C)C)CC1(C)O (centres unmarked) [Example 23, 3-O-Methylleucomycin A7] | 0.20 µg/mL (≈ 0.259 µM) | 0.10 µg/mL (≈ 0.13 µM) |  |  | 1.56 µg/mL (≈ 2.02 µM) | 0.78 µg/mL (≈ 1.01 µM) |  | 0.20 µg/mL (≈ 0.259 µM) | 0.10 µg/mL (≈ 0.13 µM) | 0.05 µg/mL (≈ 0.0648 µM) | 0.10 µg/mL (≈ 0.13 µM) | enhancement of the antibacterial activity compared to RKM and LM-A7 (Gram-positive bacteria): two-fold |
| COC1CC(=O)OC(C)CC=CC=CC(O)C(C)CC(CC=O)C(OC2OC(C)C(OC3CC(C)(OC)C(OCCC(C)C)C(C)O3)C(N(C)C)C2O)C1OC (centres unmarked) [Example 20, 4″-O-Isoamyl-3,3″-di-O-methylleucomycin V] | 0.20 µg/mL (≈ 0.25 µM) | 0.10 µg/mL (≈ 0.125 µM) |  |  | 1.56 µg/mL (≈ 1.95 µM) | 0.39 µg/mL (≈ 0.487 µM) |  | 0.39 µg/mL (≈ 0.487 µM) | 0.10 µg/mL (≈ 0.125 µM) | 0.05 µg/mL (≈ 0.0625 µM) | 0.10 µg/mL (≈ 0.125 µM) | antibacterial activity compared with the compound described in Example 7 of U.S. Pat. No. 5,407,918 (Gram-positive bacteria; comparison of MIC values of Table 1-2): almost the same antibacterial activity |
| CCCC(=O)OC1C(C)OC(OC2C(C)OC(OC3C(CC=O)CC(C)C(O)C=CC=CCC(C)OC(=O)CC(OC)C3OC)C(O)C2N(C)C)CC1(C)OC(=O)CC (centres unmarked) [Example 3, 3-O-Methylrokitamycin] | 0.10 µg/mL (≈ 0.119 µM) | 0.10 µg/mL (≈ 0.119 µM) |  |  | 3.13 µg/mL (≈ 3.72 µM) | 0.20 µg/mL (≈ 0.238 µM) |  | 0.20 µg/mL (≈ 0.238 µM) | 0.05 µg/mL (≈ 0.0594 µM) | 0.025 µg/mL (≈ 0.0297 µM) | 0.025 µg/mL (≈ 0.0297 µM) | enhancement of the antibacterial activity compared to RKM and LM-A7 (Gram-positive bacteria): two-fold; Stability in rat plasma (remaining antibacterial activity with time) [13]: more stable in the rat plasma than RKM |
| CCCC(=O)O[C@H]1[C@H](C)O[C@@H](O[C@H]2[C@H](N(C)C)[C@@H](O)[C@H](O[C@H]3[C@@H](CC=O)C[C@@H](C)[C@@H](O)/C=C/C=C/C[C@@H](C)OC(=O)C[C@@H](O)[C@@H]3OC)O[C@@H]2C)C[C@@]1(C)OC(=O)CC [RKM, rokitamycin, reference compound] |  |  |  |  |  |  |  |  |  |  |  | MIC [1, 14]: 0.2 µg/mL (≈ 0.242 µM); MIC ([9]; Staphylococcus aureus, 20 h, read-out: Minimum inhibitory concentration (MIC)): 0.39 µg/mL (≈ 0.471 µM); MIC ([2]; Streptococcus pneumoniae, 20 h, read-out: Minimum inhibitory concentration (MIC)): 0.2 µg/mL (≈ 0.242 µM); MIC ([10]; DP1TYPEI, read-out: Minimum inhibitory concentration (MIC)): 0.1 µg/mL (≈ 0.121 µM); MIC [5, 14]: 1.56 µg/mL (≈ 1.88 µM); MIC ([6]; W0500, agar plates, read-out: Minimum inhibitory concentration (MIC)): 0.2 µg/mL (≈ 0.242 µM); MIC [11, 14]: 0.05 µg/mL (≈ 0.0604 µM); MIC [12, 14]: 0.05 µg/mL (≈ 0.0604 µM) |
| C=CCOC1CC(=O)OC(C)CC=CC=CC(O)C(C)CC(CC=O)C(OC2OC(C)C(OC3CC(C)(OC(=O)CC)C(OC(=O)CCC)C(C)O3)C(N(C)C)C2O)C1OC (centres unmarked) [Example 5, 3-O-Allylrokitamycin] | 0.20 µg/mL (≈ 0.23 µM) | 0.20 µg/mL (≈ 0.23 µM) |  |  | 6.25 µg/mL (≈ 7.2 µM) | 0.39 µg/mL (≈ 0.449 µM) |  | 0.39 µg/mL (≈ 0.449 µM) | 0.20 µg/mL (≈ 0.23 µM) | 0.10 µg/mL (≈ 0.115 µM) | 0.10 µg/mL (≈ 0.115 µM) |  |
